≈ marks a conversion by molar mass, not a printed value.

Consider two compounds from ChEMBL document CHEMBL3856287, “Synthesis of novel tetrazole derivatives and evaluation of their antifungal activity” (Bioorg Med Chem, 2016).

Common to all, as to format: functional
For test [1], the system named is Aspergillus niger. Put plainly: Antifungal activity against Aspergillus niger ATCC 16404 assessed as radial growth inhibition at 16 ug/ml after 5 to 7 days relative to control. As to conditions: read-out: GI.
Test [2] is described as follows: Antifungal activity against Fusarium oxysporum MF5 assessed as radial growth inhibition at 16 ug/ml after 5 to 7 days relative to control.
Test [3] can be described thus: Antifungal activity against Fusarium sambucinum MF1 assessed as radial growth inhibition at 16 ug/ml after 5 to 7 days relative to control.
Test [4] in a line: Antifungal activity against Colletotrichum coccodes MC1 assessed as radial growth inhibition at 16 ug/ml after 5 to 7 days relative to control.
Test [5] is described as follows: Antifungal activity against Fusarium oxysporum MF5 assessed as radial growth inhibition at 32 ug/ml after 5 to 7 days relative to control.
Test [6] can be described thus: Antifungal activity against Colletotrichum coccodes MC1 assessed as radial growth inhibition at 32 ug/ml after 5 to 7 days relative to control.
Test [7] can be described thus: Antifungal activity against Fusarium sambucinum MF1 assessed as radial growth inhibition at 32 ug/ml after 5 to 7 days relative to control.
In test [8] the test system is Candida albicans. The experiment in a line: Antifungal activity against Candida albicans ATCC 90028 assessed as growth inhibition after 48 hrs by broth microdilution method. As to conditions: ATCC 90028, 48 h.
Test [9] relates to Aspergillus niger. Put plainly: Antifungal activity against Aspergillus niger ATCC 16404 assessed as radial growth inhibition at 32 ug/ml after 5 to 7 days relative to control. The note with it: read-out: GI.
In test [10] the test system is Candida albicans. The experiment in a line: Fungicidal activity against Candida albicans ATCC 90028 after 48 hrs by broth microdilution method. As to conditions: ATCC 90028, 48 h. Background: Dilution methods test growth across graded concentrations, often in twofold steps.

Consider `C[C@@H]1[C@H](O)[C@@H](C)/C=C/C=C/C=C/C=C/C=C/C=C/C=C/[C@H](O[C@@H]2O[C@H](C)[C@@H](O)[C@H](N)[C@@H]2O)C[C@@H]2O[C@](O)(C[C@@H](O)C[C@@H](O)[C@H](O)CC[C@@H](O)C[C@@H](O)CC(=O)O[C@H]1C)C[C@H](O)[C@H]2C(=O)O` [AMPHOTERICIN B], for which, in test [1], the inhibition of growth at 16 µg/mL was determined as 100%. Further, the growth inhibition (GI) in [2] is 77%; in test [3] it was 86%; in [4] it was 86.7%.
What is called MIC is the lowest concentration that inhibits growth of the organism. By MFC is commonly meant the lowest tested concentration that kills the fungus rather than only halting it. Higher therefore signals weaker fungicidal potency. With `OC(Cn1cncn1)(Cn1cncn1)c1ccc(F)cc1F` [FLUCONAZOLE], the growth inhibition (GI) came to 17.6% in test [5], 100% in test [6] and 67.7% in test [7]. Also, the MIC in test [8] came to 0.25 µg/mL (≈ 0.816 µM). Also, the inhibition of growth at 32 µg/mL in [9] came out at 52.9%. Further, in [10], the MFC turned out to be 0.5 µg/mL (≈ 1.63 µM).
